Measured values reported in patent US8680282B2, “Cyclic inhibitors of carnitine palmitoyltransferase and treating cancer” (University Health Network, priority 2007, dated 2014).

Legend:
[1] = molecular target: T1, human CPT1A (Homo sapiens, UniProt P50416); experiment: Human CPT1A LC/MS assay; assay type: biochemical; details: human CPT1A LC/MS assay, dose response format
T1 construct: made in house; host or cells: Saccharomyces cerevisiae (pESC-trp) or cultured mammalian cells (pCDNA3.1); mitochondrial extract
T1 sequence (P50416 1-773): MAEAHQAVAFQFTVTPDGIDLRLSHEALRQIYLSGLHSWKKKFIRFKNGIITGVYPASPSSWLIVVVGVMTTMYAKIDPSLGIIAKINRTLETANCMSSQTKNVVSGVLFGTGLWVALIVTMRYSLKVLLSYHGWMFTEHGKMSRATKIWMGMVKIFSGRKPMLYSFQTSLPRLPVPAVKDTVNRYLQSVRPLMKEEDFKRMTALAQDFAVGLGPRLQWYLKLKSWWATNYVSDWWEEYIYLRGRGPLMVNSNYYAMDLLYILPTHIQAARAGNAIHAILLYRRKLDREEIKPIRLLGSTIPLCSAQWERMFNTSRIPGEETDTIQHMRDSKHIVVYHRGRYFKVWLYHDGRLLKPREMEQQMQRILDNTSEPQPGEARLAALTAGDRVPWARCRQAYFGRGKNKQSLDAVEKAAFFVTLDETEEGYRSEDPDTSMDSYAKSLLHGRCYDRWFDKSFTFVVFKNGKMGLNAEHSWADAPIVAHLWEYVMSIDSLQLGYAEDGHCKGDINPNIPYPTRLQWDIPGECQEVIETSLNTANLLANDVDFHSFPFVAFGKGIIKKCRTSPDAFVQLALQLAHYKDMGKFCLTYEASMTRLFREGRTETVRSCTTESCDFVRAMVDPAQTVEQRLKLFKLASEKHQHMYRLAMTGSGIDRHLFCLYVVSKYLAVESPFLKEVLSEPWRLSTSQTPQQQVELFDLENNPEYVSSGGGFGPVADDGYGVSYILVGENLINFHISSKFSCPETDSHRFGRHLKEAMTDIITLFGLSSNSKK
From the text: Nucleotide sequences encoding human CPT1 enzymes were individually cloned into the yeast expression vector pESC-trp at the Cla1 (5′ terminus) and Pac1 (3′ terminus) restriction sites by PCR amplification of the open reading frame using oligonucleotide primers designed to encode the wild-type CPT1 protein sequence. Standard molecular biology techniques were used to transform and express the CPT1 proteins in the yeast Saccharomyces cerevisiae. The yeast cells were lysed by enzymatic degradation of the cell wall by Zymolase, and the mitochondria were isolated by standard biochemical techniques. The integrity of the isolated mitochondria was monitored by determining the activity of succinate dehydrogenase in the mitochondrial preparations. The mitochondrial extracts were stored at −80° C. in buffer containing 10 mM HEPES pH 7.4 and 250 mM sucrose.
Human CPT1 (A, B, C) genes were additionally cloned into the pCDNA3.1 vector individually for expression in cultured mammalian cells. Cells expressing the exogenous CPT1A were identified and grown under standard conditions. Mammalian cells were harvested, and mitochondrial extracts prepared using standard biochemical methods. The mitochondrial extracts were stored at −80° C. in buffer containing 10 mM HEPES pH 7.4 and 250 mM sucrose.
Assays were performed in 96-well plate format. Each 100 μL reaction contained 40 mM KCl, 50 mM TrisHCl pH 7.5, and 250 mM mannitol (Assay Buffer), and 1.6 μg protein of an extract, 20 μM palmitoyl-CoA, 50 μM L-carnitine, and 10 ug/mL BSA. Reactions were incubated at room temperature and stopped after 10 minutes by extraction with 200 μL of water saturated n-butanol containing myristoyl carnitine (500 nM) as an internal standard. The samples were thoroughly mixed, and the phases separated by centrifugation. Samples were prepared for analysis with a 10 fold dilution of the n-butanol phase containing the reaction product palmitoyl carnitine into a 50:50 (acetonitrile:water) solvent for analysis. 5 μL of prepared sample was separated on a Phenomenex Jupiter 5μ C4 reverse-phase column using an Agilent 1100 HPLC with a gradient from 50% acetonitrile (0.5% acetic acid) to 100% acetonitrile and quantified by detection with a Bruker Esquire 3000plus mass spectrometer. The abundance of the palmitoyl carnitine product was determined relative to the internal standard and the actual quantity of palmitoyl carnitine can be determined from a standard curve prepared using the n-butanol solution containing the internal standard.
Compounds were evaluated in two formats, a screening format, and a dose response format. The screening format was performed by adding 25 μL compound in 20% DMSO and Assay Buffer to 25 μL of extract containing […] and Assay Buffer, followed by a 10 minute incubation at room temperature. 50 μL of 40 μM palmitoyl-CoA in Assay Buffer was added to the reaction mixture, mixed and incubated for 10 minutes at room temperature. A negative control for activity was also performed where the carnitine was omitted from the reaction. A positive control for activity was also performed by omitting compound from the solution containing 20% DMSO and Assay Buffer. The reaction mixture was extracted and analyzed as described above. The inhibition by compound was determined by comparing the control relative activity to the relative activity observed in wells containing the compound. Relative activity was determined by subtracting the relative intensity (area palmitoyl carnitine/area myristoyl carnitine) observed in the negative control from the relative intensity observed in the experimental well, and dividing by the relative activity observed in the positive control.
[formula] Compound characterization by dose response format was performed using the above described assay conditions and a 16 point compound titration in 2 fold compound dilution steps. The DMSO concentration was kept constant at 20% (v/v) for all compound concentrations.

[2] = tested on: cancer cell lines from breast, lung, colon, brain, prostate and ovarian cancer; experiment: Cancer cell growth inhibition, SRB assay, cell line panel; assay type: cell-based, human; details: cell lines of Tables 2 and 3; for S11: at 10 μM, all lines other than MDA-231, A549, H460, HCT-8
Protocol: Human cancer cells (MCF-7, H358, H460, HCT116 p53^+/+, HCT116 p53^−/−, A172, PC-3, DU-145 and SW626) were maintained in DMEM medium containing 10% Fetal Bovine Serum (FBS) (Invitrogen, Burlington, ON, Canada) and normal cells HMEC, 184A1, NHBE and PrEC were cultured in MEGM, MEGM plus transferring and cholera toxin, BEGM and PrEGM supplemented with various growth factors (Cambrex, Charles city, Iowa, USA), respectively.
Compounds of Examples S1 to S30, and 4-(carboxymethyl)-4-(6-(3-hexyloxy)phenoxy)hexanoamido)-1,1-dimethylpiperidinium 2,2,2-trifluoroactate (“Compound A”) were tested in this example. Each of the tested compounds was dissolved in DMSO and further diluted in cell culture medium for the experiments performed. […] Cell viability was assessed by Sulforhodamine B (SRB) assay at Day 6.
Sulforhodamine B (SRB) (Sigma, Oakville, ON, Canada) is a water-soluble dye that binds to the basic amino acids of the cellular proteins. […] Absorbance was read at 570 nm on a spectrophotometer. […] Growth inhibition (%) was determined as percentage of cells remaining compared to the DMSO-treated cells as control.
All of the compounds shown in Tables 2 and 3 had activity against at least one cell line (“NT” means not tested; and “NE” means no activity at 10 micromolar—activity at higher concentrations was not measured).

For CCCCCc1ccc(S(=O)(=O)NC2(CC(=O)O)CCCN(C)C2)cc1 (centres unmarked) [Example S11, 3-(carboxymethyl)-1-methyl-3-(4-pentylphenylsulfonamido)piperidinium 2,2,2-trifluoroacetate], the IC50 [1] was 1 to 10 µM and the “activity against cancer cell lines” value [2] was “did not exihibit activity at 10 μM”.
